Laboratory results as given in patent publication US20090176711A1, “INHIBITORS OF AMYLOID PRECURSOR PROTEIN PROCESSING” (priority 2008, published 2009).
“Also recorded” adds a separate entry of the source. No end group written: not given here.

What was measured:
[1] = system: Substrate M (Sub M, SEVNLDAEFR; β-secretase cleavage site of APPsw); experiment: Binding of biotin-labeled Substrate M to immobilized complementary (HC) peptides; conditions: for binding activity for Sub M: HC peptides chemically coupled to plate, bio-Sub M
Procedure: (§1) Complementary peptides (0.2, 2, 20, and 200 μM) were dissolved in phosphate buffered saline (PBS) (pH 7.4) and fixed to microtiter wells for 5 hr at 37° C. The wells were blocked with blocking buffer (3% BSA/PBS) for 1 hr at 37° C. Either N-terminally biotinylated Substrate W or M (20 μM) in blocking buffer was added and incubated for overnight at 4° C. Streptavidin-horseradish peroxidase in blocking buffer was added to detect resulting bound substrates. The plate was incubated for 2 hr at room temperature (RT), followed by addition of 3,3′,5,5′-tetramethyl-benzidine (TMB) as substrate for horseradish peroxidase for color reaction.
(§2) Reacti-Bind™ maleic anhydride-activated polystyrene plate (Pierce, IL, USA) was coated with 50 μl of HC peptide (200 μM in distilled water) by chemical coupling for 3 h at room temperature (RT) and washed three times with phosphate buffered saline (PBS) containing 0.05% tween 20 (PBST). The plate was blocked with blocking buffer (0.5% gelatin in PBS) for 1 h at RT. After discarding blocking buffer, biotinylated BACE1 substrates (200 μM) in blocking buffer was applied on the plate and incubated for 2.5 h at RT. Each well was washed three times with PBST. The bound biotinylated BACE1 substrates were detected by incubation with streptavidin-horseradish peroxidase (Str-HRP, 125 mU/ml in blocking buffer) for 2 h at RT. Color reaction was carried out with 50 μl of 3,3′,5,5′-Tetramethylbenzidine Liquid Substrate (Sigma-Aldrich, MO, USA). After stopping the reaction by addition of an equal volume of 1 N HCl, absorbance at 450 nm was read in an automated ELISA reader (EL 312e, Bio-Tek Instruments, VT, USA). All assays were carried out in duplicate.

[2] = biological target: T1, Substrate W (Sub W, SEVKMDAEFR; β-secretase cleavage site of wild type APP) (Homo sapiens, UniProt P05067); experiment: Binding of biotin-labeled Substrate W to immobilized complementary (HC) peptides
T1 construct: […]; purchased Peptron, Inc; host or cells: chemical synthesis
Procedure: as §1
In particular, for Substrate W, complementary peptides (200 μM) dissolved in phosphate buffered saline (PBS) (pH 7.4) were chemically coupled to Reacti-Bind Maleic Anhydride Activated Polystyrene wells (Pierce Biotechnology, Inc.) for overnight at room temperature (RT). Remaining active sites of the plate were inactivated by adding ethanolamine (1 M) for 1 hr at RT. The wells were blocked with blocking buffer (3% BSA/PBS) for 1 hr at RT. N-terminally biotinylated Substrate W (20 μM) in blocking buffer was added and incubated for 3 hr at RT. Streptavidin-horseradish peroxidase in blocking buffer was added to detect resulting bound substrates. The plate was incubated for 2 hr at room temperature (RT), followed by addition of 3,3′,5,5′-tetramethyl-benzidine (TMB) as substrate for horseradish peroxidase for color reaction.
as §2

rhBACE1 = biological target: T2, rhBACE1 (Homo sapiens, UniProt P56817); experiment: ELISA binding of rhBACE1 to immobilized c-Sub M
T2 construct: purchased R&D Systems, Inc
T2 sequence (P56817 46-501): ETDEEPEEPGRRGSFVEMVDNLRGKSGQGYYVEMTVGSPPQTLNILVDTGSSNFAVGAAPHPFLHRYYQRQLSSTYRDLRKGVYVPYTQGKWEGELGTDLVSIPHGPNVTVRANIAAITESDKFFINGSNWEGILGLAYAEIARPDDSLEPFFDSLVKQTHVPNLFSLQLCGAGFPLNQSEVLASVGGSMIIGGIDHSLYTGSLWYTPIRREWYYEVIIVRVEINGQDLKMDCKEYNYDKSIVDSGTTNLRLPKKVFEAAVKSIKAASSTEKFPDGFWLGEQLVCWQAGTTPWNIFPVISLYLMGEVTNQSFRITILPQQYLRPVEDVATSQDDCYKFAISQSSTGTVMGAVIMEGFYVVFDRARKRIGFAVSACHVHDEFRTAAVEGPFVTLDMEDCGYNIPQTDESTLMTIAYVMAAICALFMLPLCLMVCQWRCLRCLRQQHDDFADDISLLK
Excerpt: In one embodiment of the present invention, four HC decapeptides targeted to either wild type APP or APPsw may be designed. […] Therefore, there is possibility that c-Sub M or any compounds derived from c-Sub M may inhibit production of Aβ from wild type APP in cells.

HEK293-APP cells = experiment: Transport of peptides into cells (FITC label); assay type: cell-based, human
Excerpt: To overcome the problem of APP inhibitor's inability to penetrate across the cell membrane, APP inhibitors were coupled with oligo-arginine (R9 means 9 Arginines), which is known to be a transporter peptide. These coupled peptides were labeled with FITC (Fluorescein isothiocyanate) using a linker AHX (aminohexanoic acid) to investigate whether the inhibitors pass through the cell membrane. FITC-AHX-c-Sub M-R9 and FITC-AHX-c-Sub MΔN1C1-R9 were made.
Oligo-arginine coupled APP inhibitors that were labeled with FITC were added to HEK293-APP cells to see whether the peptides pass through the cell membrane.

[3] = system: APP processing in HEK293-APP cells; experiment: APP inhibitor activity on HEK293-APP cells (βCTF Western blot); assay type: cell-based, human; conditions: γ-secretase inhibitor and cholesterol added
Procedure: In the neuronal cells of the brain, APP is processed by α-secretase or β-secretase. To investigate the effects of the inhibitors on the cell, a cell based assay system was developed as described in FIG. 10. C-terminal fragment of APP remaining on the cell membrane was detected by Western blot. The resulting C-terminal fragments, αCTF or βCTF are further processed by γ-secretase. However, if the cells are treated with the γ-secretase inhibitor, this processing is blocked. As a result, αCTF or βCTF accumulate in the cell. If β-secretase inhibitor or APP inhibitor is added, this processing is blocked and βCTF disappears.
In addition, γ-secretase inhibitor and cholesterol were added to the cells to increase βCTF level. Commercially available peptide-based β-secretase inhibitor was included as control (Lane 6, FIG. 11). To detect the N-terminal fragment of β-amyloid which is a product of APP processing, 6E10 antibody was employed. […] Recently, it has been reported that the commercially available peptide-based inhibitor had to be linked to an oligoarginine transporter peptide to have inhibitory activity against cells. Therefore, mimetic approach is adopted to produce cell permeable analogs. (Chang et al. J. Neurochemistry 2004; 89:1409-1416).
After confirming the ability of the oligo-arginine coupled APP inhibitors to enter the cells, the inhibitors were applied to HEK293-APP cells overexpressing APP to test their inhibitory activities on APP processing. […] This inhibitor started to show significant inhibitory activity beginning from 0.1 μM (lower panel).

[4] = system: cleavage of Substrate M by β-secretase; experiment: Inhibition of cleavage of Substrate M by β-secretase by complementary and deletion peptides (Examples 1, 5, 6; assay format not stated); assay type: biochemical; conditions: for concentration dependent inhibitory activity, activity group: various concentrations, Substrate M (FIG. 8)
Procedure: So far we have focused on c-Sub M peptide. Serial deletions were made from N-terminus or C-terminus of c-Sub M (FIG. 5), and we investigated effect of the deletions on the cleavage of Substrate M. The optimum peptide/substrate ratio for inhibition on the cleavage of substrate was determined by observing the inhibition percentage at various peptide/substrate ratios (FIG. 4). Subsequently, the inhibitory activity of the deletion peptides were tested at 10 inhibitor/substrate ratio and the concentration of the Substrate M was 50 μM. Deletion of the first two amino acids from the N-terminus had little effect on the activity and deletion of five amino acids from the C-terminus of c-Sub M had little effect on the inhibitory activity (FIG. 6). Further deleted peptides were tested for inhibitory activity on the cleavage of Substrate M (FIG. 7).
The above-mentioned peptides that have inhibitory activity were tested at various concentrations for their inhibitory activities on their mutant substrate Substrate M (FIG. 8).

[5] = system: γ-secretase cleavage in KEK293 APP cells; experiment: Cell based γ-secretase assay (α-CTF Western); design: species or system human; conditions: cells treated for 9 hours
Procedure: In order to test these peptides in the cell for their inhibitory effect on γ-secretase cleavage, a cell based assay was developed. After KEK293 APP cells were cultured in 6 well culture plates with 90% confluency, the cells were treated for 9 hours with N-[N-(3,5-difluorophenacetyl)-L-alanyl]-(S)-phenylglycine t-butyl ester (DAPT) (Dovey H F et al, J. Neurochemistry 2001;76:173-181), which is a known γ-secretase inhibitor, and complementary peptides. The cells in each well were lysed and these lysates were separated with 15% tris-tricine gel. Western analysis was performed with R1 antibody as primary antibody and goat anti-rabbit-HRP as secondary antibody.

[6] = system: cleavage of Sub M by rhBACE1; experiment: HPLC analysis of the cleavage of Sub M by rhBACE1; assay type: biochemical, human; conditions: 25-fold amount of inhibitor, 420 nM β-secretase
Procedure: Substrate M (100 μM) was preincubated with complementary peptides ([…]) in assay buffer (100 μl) overnight at RT. rhBACE (140 nM) in assay buffer was added and incubated for 11 hr at RT. Cleavage products of Substrate M by rhBACE were quantitated after separation by C-18 reversed-phase column chromatography (GRACE VyDAC).
One of the advantages of the APP inhibitor described in the present invention is that it is a peptide or a mimetic that bind to the β-secretase cleavage site of APP, thus not affecting other β-secretase substrates. To confirm the specificity of the inventive APP inhibitor, two different types of substrates were used, APP Sub M and ST6Ga11. Both substrates are cleaved by β-secretase under normal conditions and the effect of the inventive APP inhibitor on the substrate cleavage was monitored by HPLC (See the schematic diagram in FIG. 16.) To carry out these experiments, the concentration of β-secretase required for cleavage of both substrates was determined as shown in FIG. 17. For substantial cleavage of ST6Ga11 substrate, 420 nM of the enzyme was required. Therefore, 420 nM of β-secretase was used for the following experiment.
Reversed-phase HPLC was also used to analyze the products of enzyme action in vitro. […] The cleavage products were identified at 215 nm and quantitated by integrating the area under each peak. […]

[7] = system: γ-secretase (membrane fractions of N2a cells); experiment: γ-Secretase activity assay on membrane fractions of N2a cells; assay type: biochemical, mouse; conditions: 200 μM peptide, 12.5 μM fluorogenic substrate, 1 hour preincubation
Procedure: Since γ-secretase is composed of four components, cloning of γ-secretase gene is impossible. Therefore, cell extracts were used as γ-secretase source. To obtain the cell extracts, after cell lysis with extraction buffer, the lysate was centrifuged at 10,000×g for 1 minute. Afterward, 2× reaction buffer and fluorogenic substrate was mixed and added to the cell lysate. Then, this mixture was incubated at 37° C. and γ-secretase activity was detected at excitation 335 to 355 nm and emission 495 to 510 nm.
γ-Secretase activity assay was performed on membrane fractions of N2a cells in the presence of several complementary peptides. After 12.5 μM fluorogenic substrate and 200 μM each of the complementary peptides were preincubated for 1 hour, γ-secretase was added to the mixture. In the course of time, the fluorogenic substrate was cleaved by the γ-secretase.

SEFCIQIHFR-NH2 [c-Sub M, SEFCIQIHFR] was tested. Which “binding activity for Sub M” value [1] did it give?
Its value is “highest binding”.

What about the “binding activity for Sub M” value ([1]; listed as c-Sub) of the same molecule?
The value was “bound”.

What about the “binding to Substrate M” value ([1]; complementary peptide immobilized, biotin-labeled Substrate M) of the same molecule?
Its value is “binds to Sub M appreciably and bind and binds its substrate Sub M”.

And the “absorbance in binding test” value ([1]; substrate not specified)?
Its value is “high absorbance”.

And the “binding to Sub W relative to c-Sub W” value ([2]; HC peptides chemically coupled, bio-Sub W)?
The value was 4 fold.

What about the “binding to Substrate W” value ([2]; complementary peptide immobilized, biotin-labeled Substrate W) of the same molecule?
The value was “binds the wild type substrate Sub W efficiently”.

What about the “binding to rhBACE1” value (rhBACE1) of the same molecule?
Its value is “does not bind to rhBACE1”.

What about the “transport into the cells” value (HEK293-APP cells) of the same molecule?
Its value is “does not enter the cells”.

And the “inhibitory activity on APP processing (βCTF)” value [3]?
The value was “does not inhibit the processing of APP in cells; also recorded: none of the inhibitors tested showed inhibitory activity”.

And the “inhibition of cleavage of Substrate M by β-secretase” value ([4]; FIG. 4)?
Its value is “inhibit cleavage”.

And the “concentration dependent inhibitory activity, activity group” value [4]?
The value was “less activity”.

For C[C@H](NC(=O)Cc1cc(F)cc(F)c1)C(=O)N[C@H](C(=O)OC(C)(C)C)c1ccccc1 [DAPT, N-[N-(3,5-difluorophenacetyl)-L-alanyl]-(S)-phenylglycine t-butyl ester], which “inhibition of γ-secretase activity in cells (α-CTF accumulation)” value [5] is on record?
Its value is “inhibits γ-secretase activity very effectively”.

How did the “Sub M cleavage blocked” value [6] turn out when “FCIQIHF (also: cyclic, mode of cyclisation not given here) [c-Sub M ΔN2C1]” was run?
The value was “about 60%”.

And the “concentration dependent inhibitory activity, activity group” value [4]?
The value was “most active group”.

PQQYRCHRQR [rCh2 (3′→5′)] was tested. Which “inhibitory effect on γ-secretase activity” value [7] did it give?
The value was “about 80%”.
